Experimental data reported in article PMC9668969 (Nature Communications, 2022).
“And” between values parts separate entries of the source, which are not always exact repeats. Equal entries are not always repeated. Where two headings read alike, the source gives them in different places.

Legend:
WT ELIC [1] = conditions: without BaCl2; cited from earlier work
[2] = biological target: T1, ELIC3 (V261Y/G319F/I320F) (Dickeya chrysanthemi, UniProt P0C7B7, G318F/I319F/V260Y); assay: Giant liposome excised patch-clamp recordings (2:1:1 POPC:POPE:POPG); assay type: biochemical, Erwinia chrysanthemi
T1 construct: host or cells: OverExpress C43 (DE3) E. coli
Protocol: (§1) Giant liposome formation and excised patch-clamp recordings of ELIC were performed as previously described[12],[13]. 0.5 mg of WT ELIC, ELIC3 or ELIC5 were reconstituted in 5 mg of 2:1:1 POPC:POPE:POPG liposomes, using DDM destabilization and biobeads. 10 mM MOPS pH 7 and 150 mM NaCl (MOPS buffer) was used throughout. Proteoliposomes were pelleted and resuspended in ~80 µl, and frozen in 10 µl aliquots. Giant liposomes were formed by dehydrating 10 µl of proteoliposomes on a glass coverslip in a vacuum desiccator for ~20 min followed by rehydration with 100 µl of MOPS buffer overnight at 4 °C and 2 hr at RT the following day. The giant liposomes were resuspended by pipetting and applied to a recording chamber. The liposomes were allowed to settle for 15 min, after which free liposomes and debris were removed by exchanging the bath solution. Bath and pipette solutions contained MOPS buffer and 0.5 mM BaCl2 (Sigma). […] Rapid application or washout of agonist were performed using a three-barreled flowpipe mounted to and controlled by a SF-77B fast perfusion system (Warner Instrument Corporation). […] Deactivation time courses were fit with a single exponential while the time course of desensitization was fit with a double exponential. Weighted time constants were calculated using Eq. 1:1 Weighted Tau=A1×τ1+(A2×τ2)/A1+A2 where A1 and A2 are the amplitudes of the first and second exponential components. The data were collected and analyzed using pClamp10.4 software.

WT ELIC [3] = assay: as above; assay type: biochemical, Erwinia chrysanthemi
Protocol: as §1

[4] = biological target: T2, ELIC5 (P254G/C300S/V261Y/G319F/I320F) (Dickeya chrysanthemi, UniProt P0C7B7, C299S/G318F/I319F/P253G/V260Y); assay: as above; assay type: biochemical, Erwinia chrysanthemi
T2 construct: host or cells: OverExpress C43 (DE3) E. coli
Protocol: as §1

[5] = 2:1:1 giant liposomes, 0.5 mM BaCl2, Hill n set to 2, read-out: EC50 of peak current dose response

T2 sequence (P0C7B7 whole entry P253G/V260Y/C299S/G318F/I319F): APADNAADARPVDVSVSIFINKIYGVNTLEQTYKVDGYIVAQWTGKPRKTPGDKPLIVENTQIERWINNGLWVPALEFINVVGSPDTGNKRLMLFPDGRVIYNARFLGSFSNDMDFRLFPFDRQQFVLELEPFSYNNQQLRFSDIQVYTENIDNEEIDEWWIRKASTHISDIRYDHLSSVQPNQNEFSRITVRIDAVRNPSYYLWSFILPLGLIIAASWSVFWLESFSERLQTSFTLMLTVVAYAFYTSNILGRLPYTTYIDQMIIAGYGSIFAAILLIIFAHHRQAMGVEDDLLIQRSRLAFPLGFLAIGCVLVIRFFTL
T1 sequence (P0C7B7 whole entry V260Y/G318F/I319F): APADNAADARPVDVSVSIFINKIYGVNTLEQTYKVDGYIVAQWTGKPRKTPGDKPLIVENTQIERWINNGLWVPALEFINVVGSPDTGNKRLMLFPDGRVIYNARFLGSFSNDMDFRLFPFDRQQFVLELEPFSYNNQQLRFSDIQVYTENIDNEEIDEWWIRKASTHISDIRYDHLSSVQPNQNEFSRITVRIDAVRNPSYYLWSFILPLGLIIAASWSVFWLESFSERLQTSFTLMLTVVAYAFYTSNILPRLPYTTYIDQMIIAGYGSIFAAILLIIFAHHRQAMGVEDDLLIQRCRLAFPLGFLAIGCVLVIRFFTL

NCCS [cysteamine]
EC50 (WT ELIC [1]): 1000 to 2000 µM
Peak response (normalized) ([2]; 0.3 mM cysteamine): 0.02035
Peak response (normalized) ([2]; 1 mM cysteamine): 0.4462
Peak response (normalized) ([2]; 3 mM cysteamine): 0.7955
Relative current at 60s, Average ([2]; 10 mM Cys): 0.1185
Time constant of deactivation, Deactivation Tau ([2]; 10 mM Cys): 1.081 s
Time constant of desensitizaton, Weighted Tau ([2]; 10 mM Cys): 12.8369 s
Peak response (normalized) ([2]; 10 mM cysteamine): 1.022
Relative current at 60s, Average ([2]; 30 mM Cys): 0.08245
Time constant of deactivation, Deactivation Tau ([2]; 30 mM Cys): 1.658 s
Time constant of desensitizaton, Weighted Tau ([2]; 30 mM Cys): 8.1999 s
Peak response (normalized) ([2]; 30 mM cysteamine): 1
EC50 [2, 5]: 1200 ± 200 µM
Peak response (normalized) (WT ELIC [3]; 0.3 mM cysteamine): 0.003114
Peak response (normalized) (WT ELIC [3]; 1 mM cysteamine): 0.01807
Peak response (normalized) (WT ELIC [3]; 3 mM cysteamine): 0.2085
Relative current at 60s, Average (WT ELIC [3]; 10 mM Cys): 0.05101
Time constant of deactivation, Deactivation Tau (WT ELIC [3]; 10 mM Cys): 0.1636 s
Time constant of desensitizaton, Weighted Tau (WT ELIC [3]; 10 mM Cys): 4.764 s
Peak response (normalized) (WT ELIC [3]; 10 mM cysteamine): 0.7416
Relative current at 60s, Average (WT ELIC [3]; 30 mM Cys): 0.03561
Time constant of deactivation, Deactivation Tau (WT ELIC [3]; 30 mM Cys): 0.4008 s
Time constant of desensitizaton, Weighted Tau (WT ELIC [3]; 30 mM Cys): 2.506 s
Peak response (normalized) (WT ELIC [3]; 30 mM cysteamine): 1
EC50 (WT ELIC [3]; [5]): 5200 µM and 4000 to 5000 µM
Relative current at 60s ([4]; 10 mM Cys): No evidence of desensitization
Time constant of deactivation, Deactivation Tau ([4]; 10 mM Cys): 195.719 s
Time constant of desensitizaton ([4]; 10 mM Cys): No evidence of desensitization
deactivation rate, fold slower than WT ([4]; after removal of 10 mM cysteamine): ~ 1000 ×
desensitization ([4]; in the presence of 10 mM cysteamine): no evidence of desensitization
